This is an account of results in patent publication US10828300B2, “Substituted 2,4-diaminopyrimidines as kinase inhibitors” (Celgene CAR LLC, priority 2008, dated 2020).

T1 sequence (Q06187 whole entry): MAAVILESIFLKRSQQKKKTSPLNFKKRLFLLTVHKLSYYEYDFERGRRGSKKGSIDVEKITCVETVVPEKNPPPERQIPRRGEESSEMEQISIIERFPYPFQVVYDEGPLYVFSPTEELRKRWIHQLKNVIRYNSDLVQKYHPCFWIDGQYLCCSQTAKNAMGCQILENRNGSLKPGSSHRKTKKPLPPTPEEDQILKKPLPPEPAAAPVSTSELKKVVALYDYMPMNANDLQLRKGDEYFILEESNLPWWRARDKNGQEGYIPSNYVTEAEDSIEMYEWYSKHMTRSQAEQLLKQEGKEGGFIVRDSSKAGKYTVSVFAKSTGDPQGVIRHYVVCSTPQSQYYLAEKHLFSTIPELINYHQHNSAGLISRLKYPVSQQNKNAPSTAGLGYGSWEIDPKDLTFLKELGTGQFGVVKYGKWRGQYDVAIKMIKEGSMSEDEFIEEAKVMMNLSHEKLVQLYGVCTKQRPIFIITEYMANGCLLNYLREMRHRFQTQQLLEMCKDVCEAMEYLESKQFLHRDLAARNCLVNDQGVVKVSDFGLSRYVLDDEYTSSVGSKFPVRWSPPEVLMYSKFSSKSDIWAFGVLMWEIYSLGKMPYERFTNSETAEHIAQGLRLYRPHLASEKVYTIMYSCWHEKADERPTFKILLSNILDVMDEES

The first experiment addresses T1, BTK (Homo sapiens (Human), UniProt Q06187). The experiment can be described thus: Washout experiment with Ramos cells (PLCγ2 phosphorylation). The experiment is classed as cell-based. The conditions noted are these: Ramos washout assay, 100 nM compound for 1 hour. The method, then: Washout Experiment with Ramos Cells
Ramos cells were serum starved for one hour in RPMI media +1% glutamine at 37° C. After starvation, Ramos cells were treated with 100 nM compound diluted in serum free RPMI media for 1 hour. After compound treatment, the media was removed and cells were washed with compound-free media. Subsequently, Ramos cells were washed every 2 hours and resuspended in fresh compound-free media. Cells were collected at specified timepoints, treated with 1 ug anti-human IgM (Southern Biotech cat #2022-01) for 10 minutes on ice to induce BCR signaling and then washed in PBS. Ramos cells were then lysed in Cell Extraction Buffer (Invitrogen FNN0011) supplemented with Roche complete protease inhibitor tablets (Roche 11697498001) and phosphatase inhibitors (Roche 04 906 837 001) and 18 ug total protein lysate was loaded in each lane. Inhibition of BTK kinase activity was assayed by measuring its substrate (PLCγ2) phosphorylation by western blot with phospho-specific antibodies from Cell Signaling Technologies cat#3871. The results of this experiment with compounds I-2, I-4 and I-7 are depicted in FIGS. 1, 2 and 3.
`C=CC(=O)Nc1cccc(Nc2nc(Nc3ccccc3)ncc2F)c1` [Compound I-28, N-(3-(5-fluoro-2-(phenylamino)pyrimidin-4-ylamino)phenyl)acrylamide]: the “BTK Inhibition Type” value is “irreversible”. Take `C#CCOc1cccc(Nc2ncc(C)c(Nc3cccc(NC(=O)C=C)c3)n2)c1` [Compound I-35, N-(3-(5-methyl-2-(3-(prop-2-ynyloxy)phenylamino)pyrimidin-4-ylamino)phenyl) acrylamide]: the “BTK Inhibition Type” value is given as “irreversible”.

For the compound `Cc1cnc(Nc2ccccc2)nc1Nc1cccc(NC(=O)/C=C/CN(C)C)c1` [Compound I-38, (E)-4-(dimethylamino)-N-(3-(5-methyl-2-(phenylamino)pyrimidin-4-ylamino)phenyl)but-2-enamide], the “BTK Inhibition Type” value is listed as “reversible”. As to `C=CC(=O)Nc1cccc(Oc2nc(Nc3ccccc3)ncc2F)c1` [Compound I-228, N-(3-(5-fluoro-2-(phenylamino)pyrimidin-4-yloxy)phenyl)acrylamide], the “BTK Inhibition Type” value is recorded as “irreversible”. As to `C=CC(=O)Nc1cccc(Nc2nc(Nc3ccccc3)ncc2C(N)=O)c1` [Compound I-230, 4-(3-acrylamidophenylamino)-2-(phenylamino)pyrimidine-5-carboxamide], the “BTK Inhibition Type” value is given as “irreversible”. As to `C=CC(=O)Nc1cccc(Nc2nc(Nc3cccc(OC)c3)ncc2C(F)(F)F)c1` [Compound I-242, N-(3-(5-trifluoromethyl-2-(3-methoxyphenylamino)pyrimidin-4-ylamino)phenyl)acrylamide], the “BTK Inhibition Type” value was “irreversible”. Still for that read-out and setting: under `C=CC(=O)Nc1cccc(Nc2nc(Nc3ccc(OC)nc3)ncc2F)c1` [Compound I-243, N-(3-(5-fluoro-2-(6-methoxypyridin-3-ylamino)pyrimidin-4-ylamino)phenyl)acrylamide] stands “irreversible”; under `C=CC(=O)Nc1cccc(Nc2nc(Nc3ccc(F)cc3)ncc2F)c1` [Compound I-247, N-(3-(5-fluoro-2-(4-fluorophenylamino)pyrimidin-4-ylamino)phenyl)acrylamide], “irreversible”. The same measure, in the same setting: for `C=CC(=O)Nc1cccc(Oc2nc(Nc3ccccc3)ncc2C)c1` [Compound I-248, N-(3-(5-methyl-2-(phenylamino)pyrimidin-4-yloxy)phenyl)acrylamide] the value was “irreversible”.

In another experiment the target is T1, BTK. The experiment can be described thus: BTK occupancy from in vitro samples by ELISA (Ramos cells, probe I-215). The experiment is classed as cell-based. To be noted: probe I-215 ELISA. An excerpt:
Measuring BTK occupancy from in vitro samples by ELISA
In order to determine the amount of free BTK in cell or tissue lysates, an ELISA protocol was employed that utilizes a biotinylated probe compound that binds only to free, unoccupied BTK. The conjugated biotin is captured on a streptavidin-coated ELISA plate and detected with a mouse anti-BTK antibody (Becton Dickinson, Franklin Lakes, N.J., USA) and a secondary goat anti-mouse HRP antibody (Zymed, South San Francisco, Calif., USA).
All samples were prepared with equal concentrations of Biorad lysis buffer (Hercules, Calif., USA), 0.5% bovine serum albumin in PBS with 0.05% Tween-20 to give a final concentration of 1 μM I-215. Samples were incubated in a mixing plate for 1 hr at room temperature while shaking to allow probe compound I-215 to bind to free BTK. After incubation with I-215, samples were added to a washed, streptavidin-coated ELISA plate (Pierce, Rockford, Ill., USA) and incubated for 1 hr at room temperature while shaking. The plate was then washed with PBS containing 0.05% Tween-20 using an automatic plate washer. Anti-BTK antibody was prepared at 1:1000 dilution in 0.5% BSA in PBS (0.05% Tween-20) and added to the ELISA plate. The plate was incubated for 1 hr at room temperature while shaking. The plate was washed as described above and the secondary HRP antibody was prepared at 1:5000 dilution in 0.5% BSA in PBS (0.05% Tween-20). The plate was incubated and washed as described above. TMB was added to the plate, and OD650 was monitored until reaching 1 OD unit. The reaction was then stopped with addition of H2SO4. The plate was analyzed using Gen 5 software, and a 4 Parameter Logistic curve was employed to quantitate samples. Recombinant BTK (Invitrogen, Carlsbad, Calif., USA) was used for the standard curve.
A concentration designated as “A” is greater than 1 nM; a concentration designated as “B” is greater than 10 nM; and a concentration designated as “C” is greater than 50 nM.
As for `C=CC(=O)Nc1cccc(Nc2nc(Nc3ccc(OCCOC)c(F)c3)ncc2F)c1` [Compound I-96, N-(3-(2-(3-fluoro-4-(2-methoxyethoxy)phenylamino)-5-fluoropyrimidin-4-ylamino)phenyl)acrylamide], the “concentration at which >50% of BTK is occupied” value is recorded as “A (greater than 1 nM)” and the “concentration at which >90% of BTK is occupied” value was “B (greater than 10 nM)”. For `C=CC(=O)Nc1cccc(Nc2nc(Nc3ccc(OCCOC)cc3)ncc2F)c1` [Compound I-182, N-(3-(5-fluoro-2-(4-(2-methoxyethoxy)phenylamino)pyrimidin-4-ylamino)phenyl)acrylamide], in that order: “A (greater than 1 nM)” and “C (greater than 50 nM)”.

Another experiment has as its target T1, BTK. The experiment can be described thus: Mass spectrometry for BTK (intact protein, covalent modification). The experiment is classed as binding. To be noted: intact BTK, 1 hr, 10× fold excess of compound. The method, then:
Mass Spectrometry for BTK
Intact BTK was incubated for 1 hr at a 10× fold excess of I-7 to protein. Aliquots (2 μl) of the samples were diluted with 10 μl of 0.1% TFA prior to micro C4 ZipTipping directly onto the MALDI target using Sinapinic acid as the desorption matrix (10 mg/ml in 0.1% TFA:Acetonitrile 20:80).
Consider “2-((4-(5-fluoro-2-(3-trifluoromethoxyphenylamino)pyrimidin-4-ylamino)phenyl)(hydroxy)methyl)acrylonitrile [Compound I-163]”, for which the “covalent modification of BTK by mass spectrometry” value (shortened to “covalent modification of BTK”) is reported as “completely modify”. As for `C=C(C#N)C(O)c1cccc(Nc2nc(Nc3ccc(OCCOC)cc3)ncc2F)c1` (centres unmarked) [Compound I-71, 2-((3-(5-fluoro-2-(4-(2-methoxyethoxy)phenylamino)pyrimidin-4-ylamino)phenyl)(hydroxy)methyl)acrylonitrile], the “covalent modification of BTK” value is recorded as “completely modify”. In the case of `C=CC(=O)Nc1cccc(Nc2nc(Nc3ccc(OCCOC)c(F)c3)ncc2F)c1` [Compound I-96, N-(3-(2-(3-fluoro-4-(2-methoxyethoxy)phenylamino)-5-fluoropyrimidin-4-ylamino)phenyl)acrylamide], the “covalent modification of BTK” value is recorded as “completely modify”. Take `C=CC(=O)N1CCOc2ccc(Nc3ncc(F)c(Nc4cccc(Cl)c4)n3)cc21` [Compound I-149, 1-(6-(4-(3-chlorophenylamino)-5-fluoropyrimidin-2-ylamino)-2H-benzo[b][1,4]oxazin-4(3H)-yl)prop-2-en-1-one]: the “covalent modification of BTK” value is “completely modify”. With `C=C(C#N)C(O)c1ccc(Nc2nc(Nc3ccccc3)ncc2F)cc1` (centres unmarked) [Compound I-161, 2-((4-(5-fluoro-2-(phenylamino)pyrimidin-4-ylamino)phenyl)(hydroxy)methyl)acrylonitrile], the “covalent modification of BTK” value is listed as “completely modify”. On to `C=CC(=O)Nc1cccc(Nc2nc(Nc3ccc(OCCOC)cc3)ncc2F)c1` [Compound I-182, N-(3-(5-fluoro-2-(4-(2-methoxyethoxy)phenylamino)pyrimidin-4-ylamino)phenyl)acrylamide], for which the “covalent modification of BTK” value was “completely modify”.

`C=CC(=O)N1CCC[C@@H](Nc2nc(Nc3cccc(OC)c3)ncc2F)C1` [Compound I-195, (R)-1-(3-(5-fluoro-2-(3-methoxyphenylamino)pyrimidin-4-ylamino)piperidin-1-yl)prop-2-en-1-one]: the “covalent modification of BTK” value is recorded as “completely modify”. Still for that read-out and setting: for `CC(C)=CC(=O)c1cccc(Nc2nc(Nc3cccc(OCCN(C)C)c3)ncc2F)c1` [Compound I-207] the value was “completely modify”; for `C=CC(=O)N(C)Cc1ccc(Nc2nc(Nc3ccccc3)ncc2C)cc1` [Compound I-219, N-methyl-N-(4-(5-methyl-2-(phenylamino)pyrimidin-4-ylamino)benzyl)acrylamide], “completely modify”. As for `C=CC(=O)Nc1cccc(Nc2nc(Nc3cccc(OC(F)(F)F)c3)ncc2F)c1` [Compound I-244, N-(3-(5-fluoro-2-(3-(trifluoromethoxy)phenylamino)pyrimidin-4-ylamino)phenyl)acrylamide], the “covalent modification of BTK” value is listed as “completely modify”.
